Here are results for one molecule from publication PMC3938723, “Learning from Host-Defense Peptides: Cationic, Amphipathic Peptoids with Potent Anticancer Activity” (PLoS ONE, 2014).

Non-standard residues stand in square brackets, D forms with d. Residues, ends and D or L forms follow the SMILES beside them. Nspe = C[C@H](NCC(=O)O)c1ccccc1; Nlys = NCCCCNCC(=O)O

For data set [1], the system named is human breast cancer xenograft. The experiment in a line: Human breast cancer orthotopic xenograft mouse model, tumor growth. The format is in vivo. The conditions noted are these: ~1 mg/kg (100 µl of 110 µM in PBS) injected into mammary fat pad three times a week, NSG mice, versus control peptoid 1 11mer-NLeu; caliper; P = 0.0014, t test. Here is the method: (§1) 80,000 cells from a dissociated second generation metastatic breast cancer tumor were suspended in Medium 199 containing 25% Matrix Matrigel (Becton Dickinson 354248) and injected into the mammary fat pad of 4–8 week old NOD.Cg-Prkdc^scid Il2rg^tm1Wjl/SzJ (NSG) mice. After two weeks, 100 µl PBS containing 110 µM peptoid 1 or control peptide was injected into the mammary fat pad three times a week, roughly at a dose of 1 mg/kg. Tumor volumes were determined using direct caliper measurements following […] of treatment.
(§2) Human breast cancer cells were implanted in the mammary fat pad of immunocompromised mice.
Figure 5 Reduction of tumor volumes in a human breast cancer xenograft mouse model treated with peptoid 1. Cancer cells (8×10^4 cells) isolated from the second generation xenografts of human breast cancer tissues were implanted s.c. into the lower left mammary fat pads of 5–6-week-old immunocompromised NSG (NOD.Cg-Prkdc^scid Il2rg^tm1Wjl/SzJ) female mice. Two weeks after cell implantation, 100 µl of peptoid 1 and control peptoids were injected into xenografts at 110 µM in PBS (∼1 mg/kg) three times a week, up to 8 weeks. Tumor sizes were measured by a caliper. P = 0.0014, t test.

For data set [2], the system named is Primary dermal fibroblast. As to the kind of experiment: MTS cell viability assay, primary dermal fibroblasts. The format is cell-based. To be noted: 72 h. Here is the method: MCF-7, MCF-7/TxT50 and OVCAR-3 (available in ATCC) were kindly provided by Professor Branimir Sikic's lab at Stanford University, and were cultured in McCoy's 5A media (GIBCO) with 10% FBS and antibiotics. Primary dermal fibroblasts were gifts from Lifeline Cell Technology and were cultured <6 passages according to the protocol Lifeline provides. All the cells were cultured in cell incubators (Thermo Scientific) at 37°C with 5% CO2.
This assay is a colorimetric method for determining the number of viable cells in proliferation. Aliquots of 100 µl media containing 1×10^4 cells were distributed into each well of a 96-well plate (BD Falcon). The following day, when cell density reaches about ∼40% confluency, the cell media were removed and replaced with serial dilutions of peptoid stocks in culturing media. For peptoid dilutions, peptoid stocks were initially diluted in media at 100 µM and then diluted by half in series using a multichannel pipette, and maintained in 100 µl media for each concentration with triple repeats. After peptoid solutions were transferred onto cells in 96-well plates, cells were incubated at 37°C for certain time periods. Then 20 µl of the CellTiter 96 Aqueous Non-Radioactive cell proliferation assay (Promega) reagent which contains a tetrazolium compound, [3-(4,5-dimethylthiazol-2-yl)-5-(3-carboxymethoxyphenyl)-2-(4-sulfophenyl)-2H-tetrazolium, inner salt; MTS(a)], was added to each well and cells were further incubated for 2 h to metabolize. The absorbance of formazan products were measured at 490 nm in a microplate reader (Molecular Devices). Percentage of cell viability = (A -A testblank)/(A control -A blank)×100, where A is the absorbance of the test well and A control the average absorbance of wells with cells not treated with peptoids. A testblank (media, MTS, and diluted peptoids) and A blank (media and MTS) were background absorbances measured in the absence of cells.
The activity and selectivity of these peptoids against cancer cells were evaluated in vitro. Their cytotoxicity was tested in three cancer cell lines, MCF-7 (human breast cancer), LNCaP (human prostate cancer), and OVCAR-3 (human ovarian cancer). To estimate the selectivity of these peptoids in vitro, hemolytic activities of some peptoids were cited from previously published work (Table 2 **column), and the MRC-5 cell line (human fibroblasts derived from fetal lung tissues) and primary dermal fibroblasts were also tested as normal cell controls. Briefly, cells were treated with peptoids diluted in culturing media for certain time periods, and then cell viability was measured via MTS assays.

A further data set concerns mice. As to the kind of experiment: Acute toxicity observation in xenograft mice. The conditions noted are these: intratumor injections ~1 mg/kg three times a week, xenograft NSG mice. The format is in vivo. Here is the method:
as §1, §2

The nature of data set [3]: Analytical RP-HPLC elution as relative measure of molecular hydrophobicity. The class given is physicochemical. To be noted: percentage of acetonitrile at elution, analytic RP-HPLC, C18 column, linear water/acetonitrile (0.1% trifluoroacetic acid) gradient 5%-95% acetonitrile over 30 min. The source says: Peptoids were synthesized using an ABI 433A peptide synthesizer (Applied Biosystems, Inc.) on Rink amide MBHA resin (EMD Biosciences, Gibbstown, NJ) using the submonomer protocol, [24]. Briefly, the amine on the nascent chain is bromoacetylated or chloroacetylated followed by SN2 displacement of bromide or chloride by a primary amine to form the side chain. Resin-bound peptoids were then exposed to a mixture of trifluoroacetic acid (TFA): triisopropylsilane: water (95∶2.5∶2.5, volume ratio) for 10 minutes to cleave peptoids from the resin. Crude peptoids were purified by reversed-phase high performance liquid chromatography (RP-HPLC) (Waters Corporation) using a C18 column and a linear acetonitrile/water gradient. A final purity >95% as measured by analytical RP-HPLC (Waters Corporation) was achieved, and the identity of each peptoid was confirmed using electrospray ionization mass spectrometry (ESI/MS). Pexiganan was synthesized by standard Fmoc chemistry on an ABI 433A peptide synthesizer ([…]). Unless indicated otherwise, all reagents were purchased from Sigma Aldrich (St. Louis, MO). Among the submonomers used, Nspe was derived from (S)-N-(1-phenylethyl)amine; Npm from benzylamine ([…]); NHis from histamine (2-[4-imidazolyl]ethylamine); NLeu from isobutylamine; NLys from N-tert-butoxycarbonyl-1,4-butanediamine (CNH Technologies, MA). Guanidinylation of NLys was carried out according to the reported procedure. When NHis was used in the peptoid sequence, chloroacetic acid was used. 5(6)-Carboxyfluorescein was used to label the N-terminus of peptoid 1 [28].
Peptoids were utilized herein as a peptidomimetic scaffold to capture the cationic, amphipathic nature of anticancer peptides, as well as to improve molecular stability and to increase chemical diversity. The design of anticancer peptoids were derived from previous antimicrobial peptoids and were further optimized hererin to improve the activity and selectivity of peptoids against anionic membranes, [24], [25]. […] Several novel variants were designed based on peptoid 1 but with different charges, amphipathicity, length, and helicity to change their activity or selectivity. The sequences of these variants, the solvent composition at RP-HPLC elution as a relative measure of molecular hydrophobicity, molecular net charges and their charge-to-length ratio are summarized in Table 1. […] Pexiganan, a clinically-relevant peptide analog of magainin 2 which was developed for topical treatment for diabetic foot infection, and LL-37, the only known human cathelicidin which is a non-selective antimicrobial peptide, were also tested for comparison.

Consider `C[C@@H](c1ccccc1)N(CC(N)=O)C(=O)CN(C(=O)CN(CCCCN)C(=O)CN(C(=O)CN(C(=O)CN(CCCCN)C(=O)CN(C(=O)CN(C(=O)CN(CCCCN)C(=O)CN(C(=O)CN(C(=O)CNCCCCN)[C@@H](C)c1ccccc1)[C@@H](C)c1ccccc1)[C@@H](C)c1ccccc1)[C@@H](C)c1ccccc1)[C@@H](C)c1ccccc1)[C@@H](C)c1ccccc1)[C@@H](C)c1ccccc1` [Peptoid 1, H-(NLys-Nspe-Nspe)4-NH2] (H-[Nlys][Nspe][Nspe][Nlys][Nspe][Nspe][Nlys][Nspe][Nspe][Nlys][Nspe][Nspe]-NH2), for which the tumor growth entry in data set [1] is listed as “significantly inhibited the tumor growth”. For the same molecule, the “LC50 Primary dermal fibroblast” value in data set [2] was found to be 8 µM. Further, the “acute side effects in mice” value in the data set with mice was “without causing any obvious acute side effects”. The same molecule came in with an HPLC elution in data set [3] of 65.1 % ACN.
